The target of experiment [1] is T1, RyR1 (Sus scrofa, UniProt P16960). Put plainly: [3H]ryanodine binding to skeletal SR vesicles. Set-up: RyR1 in skeletal SR membranes, and RyR2 in cardiac SR membranes; from tissue; host or cells: porcine longissimus dorsi muscle (heavy SR vesicles). Format: biochemical, porcine. As for the experimental part:
(§1) To evaluate the functional impact of compounds identified through our FRET-based screen, we first used [^3H]ryanodine binding assays. The level of [^3H]ryanodine binding to RyRs in SR membranes is a well-established index of the RyR channel activity. Given the role of CaM binding in our FRET readout, we investigated whether CaM influences the functional effect of the Hit compounds by carrying out [^3H]ryanodine binding assays in the absence and presence of CaM (300 nM).
Crude sarcoplasmic reticulum (CSR) vesicles were isolated from porcine longissimus dorsi muscle and porcine cardiac left ventricle tissue by differential centrifugation of homogenized tissue. HSR vesicles, which are enriched in RyR1, were isolated by fractionation of crude skeletal SR vesicles using a discontinuous sucrose gradient. All vesicles were flash-frozen and stored at −80 °C. Immediately prior to the fluorescence or [^3H]ryanodine binding studies described below, the SR vesicles were stripped of residual endogenous CaM by incubation with a peptide derived from the CaM binding domain of myosin light chain kinase, followed by sedimentation.
In 96-well plates, HSR vesicles (1 mg/ml) and cardiac CSR vesicles (3 mg/mL) were pre-incubated with 0.02% DMSO or Hit compound, with or without 300 nM CaM, for 30 min at 22 °C in a solution containing 150 mM KCl, 5 mM GSSG, 1 µg/mL Aprotinin/Leupeptin, 1 mM EGTA, and 65 µM or 1.02 mM CaCl2 (as determined by MaxChelator to yield 30 nM or 30 μM of free Ca^2+, respectively), 0.1 mg/mL BSA and 20 mM K-PIPES (pH 7.0). Non-specific and maximal [^3H]ryanodine binding to SR were separately assessed by addition of 40 µM non-radioactively labeled ryanodine or 5 mM Adenylyl-imidodiphosphate, respectively. Such control samples were each distributed over 4 wells/plate. Binding of [^3H]ryanodine (10 and 15 nM for cardiac and skeletal SR, respectively) was determined after a 3-h incubation (37 °C) and filtration through grade GF/B Glass Microfiber filters (Brandel Inc., Gaithersburg, MD, US) using a Brandel Harvester. In 4 mL of Ecolite Scintillation cocktail (MP biomedicals, Solon, OH, USA), [^3H] on filter was counted using a Beckman LS6000 scintillation counter (Fullerton, CA).

Experiment [2] concerns the target T2, RyR2 (Sus scrofa, UniProt A0A5G2R1W3). Put plainly: F-FKBP binding to RyR2 by co-sedimentation with cardiac SR membranes. Set-up: using co-sedimentation with pig skeletal and cardiac SR membranes; from tissue; host or cells: pig cardiac muscle (crude SR membranes); species or system pig. The note with it: RyR2, 10 μM Hit, 30 nM Ca2+, 5 mM GSSG or GSH. As for the experimental part: (§2) The Hit-induced effect on FRET between D-FKBP and A-CaM most likely results from one or the combination of factors, including a shift in CaM and/or FKBP12.6 binding, and/or structure of the RyR complex that shifts the D-A distance. Under the same assay conditions as in the primary screen, we assessed the effect of 10 μM Hit on fluorescent FKBP12.6 (F-FKBP) binding to RyRs, using co-sedimentation with pig skeletal and cardiac SR membranes.
(§3) Supplementary Fig. 3 Effect of HTS Hits on F-FKBP binding to a) RyR1 in skeletal HSR membranes, and b) RyR2
(§4) in cardiac CSR membranes at 30 nM Ca2+ in the presence of 5 mM GSSG or GSH. Results are represented as individual
(§5) data points and means ± SEM, n = 4-5. *P < 0.05 by 2-sided Student’s unpaired t-test. […]

The subject of experiment [3] is RyR1 Ca^2+ leak in human skinned skeletal muscle fibers. Put plainly: t-system Ca2+ readout of RyR1 Ca2+ leak in human mechanically skinned skeletal muscle fibers. The settings on record: for Reduction of RyR1 Ca2+ leak: at identified compound concentrations that only slightly affected Ca2+ release in EC coupling.
Experiment [4] deals with T1, RyR1. The experiment is described as follows: F-FKBP binding to RyR1 by co-sedimentation with skeletal SR membranes. Set-up: using co-sedimentation with pig skeletal and cardiac SR membranes; from tissue; host or cells: pig skeletal muscle (heavy SR membranes); species or system pig. The note with it: RyR1, 10 μM Hit, 30 nM Ca2+, 5 mM GSSG or GSH. As for the experimental part:
as §2, §3, §4, §5

Experiment [5] has as its target T2, RyR2. The experiment is described as follows: [3H]ryanodine binding to cardiac SR vesicles. Format: biochemical, porcine. Set-up: RyR1 in skeletal SR membranes, and RyR2 in cardiac SR membranes; from tissue; host or cells: porcine cardiac left ventricle (crude SR vesicles). The note with it: micromolar compound, significant only with CaM at 30 nM Ca2+ and only without CaM at 30 μM Ca2+. As for the experimental part:
as §1
Crude sarcoplasmic reticulum (CSR) vesicles were isolated from porcine longissimus dorsi muscle and porcine cardiac left ventricle tissue by differential centrifugation of homogenized tissue. […] Immediately prior to the fluorescence or [^3H]ryanodine binding studies described below, the SR vesicles were stripped of residual endogenous CaM by incubation with a peptide derived from the CaM binding domain of myosin light chain kinase, followed by sedimentation.
In 96-well plates, HSR vesicles (1 mg/ml) and cardiac CSR vesicles (3 mg/mL) were pre-incubated with 0.02% DMSO or Hit compound, with or without 300 nM CaM, for 30 min at 22 °C in a solution containing 150 mM KCl, 5 mM GSSG, 1 µg/mL Aprotinin/Leupeptin, 1 mM EGTA, and 65 µM or 1.02 mM CaCl2 (as determined by MaxChelator to yield 30 nM or 30 μM of free Ca^2+, respectively), 0.1 mg/mL BSA and 20 mM K-PIPES (pH 7.0). […]

Experiment [6] deals with T1, RyR1. Set-up: RyR1 in skeletal SR membranes; from tissue; host or cells: porcine longissimus dorsi muscle (heavy SR vesicles); method as in PMID 27760856. The settings on record: skeletal HSR, previous study; cited from earlier work.
The next experiment has as its system MH-linked RyR1 mutant. Set-up: method as in PMID 29674523. The settings on record: HEK293 cells; cited from earlier work.
Experiment [7] concerns the target T1, RyR1. Set-up: RyR1 in skeletal SR membranes; from tissue; host or cells: porcine longissimus dorsi muscle (heavy SR vesicles); method as in PMID 27760856. The settings on record: NIH Clinical Collection screen; cited from earlier work.
Where [8] appears, read: 10 μM compound, 200 nM [Ca2+]cyto.

This is an account of results in article PMC7000700, “RyR1-targeted drug discovery pipeline integrating FRET-based high-throughput screening and human myofiber dynamic Ca^2+ assays” (Scientific Reports, 2020).

SMILES strings stand for the structures. Where two headings read alike, the source gives them in different places. Bounds are passed on as bounds.

T1 sequence (P16960 whole entry): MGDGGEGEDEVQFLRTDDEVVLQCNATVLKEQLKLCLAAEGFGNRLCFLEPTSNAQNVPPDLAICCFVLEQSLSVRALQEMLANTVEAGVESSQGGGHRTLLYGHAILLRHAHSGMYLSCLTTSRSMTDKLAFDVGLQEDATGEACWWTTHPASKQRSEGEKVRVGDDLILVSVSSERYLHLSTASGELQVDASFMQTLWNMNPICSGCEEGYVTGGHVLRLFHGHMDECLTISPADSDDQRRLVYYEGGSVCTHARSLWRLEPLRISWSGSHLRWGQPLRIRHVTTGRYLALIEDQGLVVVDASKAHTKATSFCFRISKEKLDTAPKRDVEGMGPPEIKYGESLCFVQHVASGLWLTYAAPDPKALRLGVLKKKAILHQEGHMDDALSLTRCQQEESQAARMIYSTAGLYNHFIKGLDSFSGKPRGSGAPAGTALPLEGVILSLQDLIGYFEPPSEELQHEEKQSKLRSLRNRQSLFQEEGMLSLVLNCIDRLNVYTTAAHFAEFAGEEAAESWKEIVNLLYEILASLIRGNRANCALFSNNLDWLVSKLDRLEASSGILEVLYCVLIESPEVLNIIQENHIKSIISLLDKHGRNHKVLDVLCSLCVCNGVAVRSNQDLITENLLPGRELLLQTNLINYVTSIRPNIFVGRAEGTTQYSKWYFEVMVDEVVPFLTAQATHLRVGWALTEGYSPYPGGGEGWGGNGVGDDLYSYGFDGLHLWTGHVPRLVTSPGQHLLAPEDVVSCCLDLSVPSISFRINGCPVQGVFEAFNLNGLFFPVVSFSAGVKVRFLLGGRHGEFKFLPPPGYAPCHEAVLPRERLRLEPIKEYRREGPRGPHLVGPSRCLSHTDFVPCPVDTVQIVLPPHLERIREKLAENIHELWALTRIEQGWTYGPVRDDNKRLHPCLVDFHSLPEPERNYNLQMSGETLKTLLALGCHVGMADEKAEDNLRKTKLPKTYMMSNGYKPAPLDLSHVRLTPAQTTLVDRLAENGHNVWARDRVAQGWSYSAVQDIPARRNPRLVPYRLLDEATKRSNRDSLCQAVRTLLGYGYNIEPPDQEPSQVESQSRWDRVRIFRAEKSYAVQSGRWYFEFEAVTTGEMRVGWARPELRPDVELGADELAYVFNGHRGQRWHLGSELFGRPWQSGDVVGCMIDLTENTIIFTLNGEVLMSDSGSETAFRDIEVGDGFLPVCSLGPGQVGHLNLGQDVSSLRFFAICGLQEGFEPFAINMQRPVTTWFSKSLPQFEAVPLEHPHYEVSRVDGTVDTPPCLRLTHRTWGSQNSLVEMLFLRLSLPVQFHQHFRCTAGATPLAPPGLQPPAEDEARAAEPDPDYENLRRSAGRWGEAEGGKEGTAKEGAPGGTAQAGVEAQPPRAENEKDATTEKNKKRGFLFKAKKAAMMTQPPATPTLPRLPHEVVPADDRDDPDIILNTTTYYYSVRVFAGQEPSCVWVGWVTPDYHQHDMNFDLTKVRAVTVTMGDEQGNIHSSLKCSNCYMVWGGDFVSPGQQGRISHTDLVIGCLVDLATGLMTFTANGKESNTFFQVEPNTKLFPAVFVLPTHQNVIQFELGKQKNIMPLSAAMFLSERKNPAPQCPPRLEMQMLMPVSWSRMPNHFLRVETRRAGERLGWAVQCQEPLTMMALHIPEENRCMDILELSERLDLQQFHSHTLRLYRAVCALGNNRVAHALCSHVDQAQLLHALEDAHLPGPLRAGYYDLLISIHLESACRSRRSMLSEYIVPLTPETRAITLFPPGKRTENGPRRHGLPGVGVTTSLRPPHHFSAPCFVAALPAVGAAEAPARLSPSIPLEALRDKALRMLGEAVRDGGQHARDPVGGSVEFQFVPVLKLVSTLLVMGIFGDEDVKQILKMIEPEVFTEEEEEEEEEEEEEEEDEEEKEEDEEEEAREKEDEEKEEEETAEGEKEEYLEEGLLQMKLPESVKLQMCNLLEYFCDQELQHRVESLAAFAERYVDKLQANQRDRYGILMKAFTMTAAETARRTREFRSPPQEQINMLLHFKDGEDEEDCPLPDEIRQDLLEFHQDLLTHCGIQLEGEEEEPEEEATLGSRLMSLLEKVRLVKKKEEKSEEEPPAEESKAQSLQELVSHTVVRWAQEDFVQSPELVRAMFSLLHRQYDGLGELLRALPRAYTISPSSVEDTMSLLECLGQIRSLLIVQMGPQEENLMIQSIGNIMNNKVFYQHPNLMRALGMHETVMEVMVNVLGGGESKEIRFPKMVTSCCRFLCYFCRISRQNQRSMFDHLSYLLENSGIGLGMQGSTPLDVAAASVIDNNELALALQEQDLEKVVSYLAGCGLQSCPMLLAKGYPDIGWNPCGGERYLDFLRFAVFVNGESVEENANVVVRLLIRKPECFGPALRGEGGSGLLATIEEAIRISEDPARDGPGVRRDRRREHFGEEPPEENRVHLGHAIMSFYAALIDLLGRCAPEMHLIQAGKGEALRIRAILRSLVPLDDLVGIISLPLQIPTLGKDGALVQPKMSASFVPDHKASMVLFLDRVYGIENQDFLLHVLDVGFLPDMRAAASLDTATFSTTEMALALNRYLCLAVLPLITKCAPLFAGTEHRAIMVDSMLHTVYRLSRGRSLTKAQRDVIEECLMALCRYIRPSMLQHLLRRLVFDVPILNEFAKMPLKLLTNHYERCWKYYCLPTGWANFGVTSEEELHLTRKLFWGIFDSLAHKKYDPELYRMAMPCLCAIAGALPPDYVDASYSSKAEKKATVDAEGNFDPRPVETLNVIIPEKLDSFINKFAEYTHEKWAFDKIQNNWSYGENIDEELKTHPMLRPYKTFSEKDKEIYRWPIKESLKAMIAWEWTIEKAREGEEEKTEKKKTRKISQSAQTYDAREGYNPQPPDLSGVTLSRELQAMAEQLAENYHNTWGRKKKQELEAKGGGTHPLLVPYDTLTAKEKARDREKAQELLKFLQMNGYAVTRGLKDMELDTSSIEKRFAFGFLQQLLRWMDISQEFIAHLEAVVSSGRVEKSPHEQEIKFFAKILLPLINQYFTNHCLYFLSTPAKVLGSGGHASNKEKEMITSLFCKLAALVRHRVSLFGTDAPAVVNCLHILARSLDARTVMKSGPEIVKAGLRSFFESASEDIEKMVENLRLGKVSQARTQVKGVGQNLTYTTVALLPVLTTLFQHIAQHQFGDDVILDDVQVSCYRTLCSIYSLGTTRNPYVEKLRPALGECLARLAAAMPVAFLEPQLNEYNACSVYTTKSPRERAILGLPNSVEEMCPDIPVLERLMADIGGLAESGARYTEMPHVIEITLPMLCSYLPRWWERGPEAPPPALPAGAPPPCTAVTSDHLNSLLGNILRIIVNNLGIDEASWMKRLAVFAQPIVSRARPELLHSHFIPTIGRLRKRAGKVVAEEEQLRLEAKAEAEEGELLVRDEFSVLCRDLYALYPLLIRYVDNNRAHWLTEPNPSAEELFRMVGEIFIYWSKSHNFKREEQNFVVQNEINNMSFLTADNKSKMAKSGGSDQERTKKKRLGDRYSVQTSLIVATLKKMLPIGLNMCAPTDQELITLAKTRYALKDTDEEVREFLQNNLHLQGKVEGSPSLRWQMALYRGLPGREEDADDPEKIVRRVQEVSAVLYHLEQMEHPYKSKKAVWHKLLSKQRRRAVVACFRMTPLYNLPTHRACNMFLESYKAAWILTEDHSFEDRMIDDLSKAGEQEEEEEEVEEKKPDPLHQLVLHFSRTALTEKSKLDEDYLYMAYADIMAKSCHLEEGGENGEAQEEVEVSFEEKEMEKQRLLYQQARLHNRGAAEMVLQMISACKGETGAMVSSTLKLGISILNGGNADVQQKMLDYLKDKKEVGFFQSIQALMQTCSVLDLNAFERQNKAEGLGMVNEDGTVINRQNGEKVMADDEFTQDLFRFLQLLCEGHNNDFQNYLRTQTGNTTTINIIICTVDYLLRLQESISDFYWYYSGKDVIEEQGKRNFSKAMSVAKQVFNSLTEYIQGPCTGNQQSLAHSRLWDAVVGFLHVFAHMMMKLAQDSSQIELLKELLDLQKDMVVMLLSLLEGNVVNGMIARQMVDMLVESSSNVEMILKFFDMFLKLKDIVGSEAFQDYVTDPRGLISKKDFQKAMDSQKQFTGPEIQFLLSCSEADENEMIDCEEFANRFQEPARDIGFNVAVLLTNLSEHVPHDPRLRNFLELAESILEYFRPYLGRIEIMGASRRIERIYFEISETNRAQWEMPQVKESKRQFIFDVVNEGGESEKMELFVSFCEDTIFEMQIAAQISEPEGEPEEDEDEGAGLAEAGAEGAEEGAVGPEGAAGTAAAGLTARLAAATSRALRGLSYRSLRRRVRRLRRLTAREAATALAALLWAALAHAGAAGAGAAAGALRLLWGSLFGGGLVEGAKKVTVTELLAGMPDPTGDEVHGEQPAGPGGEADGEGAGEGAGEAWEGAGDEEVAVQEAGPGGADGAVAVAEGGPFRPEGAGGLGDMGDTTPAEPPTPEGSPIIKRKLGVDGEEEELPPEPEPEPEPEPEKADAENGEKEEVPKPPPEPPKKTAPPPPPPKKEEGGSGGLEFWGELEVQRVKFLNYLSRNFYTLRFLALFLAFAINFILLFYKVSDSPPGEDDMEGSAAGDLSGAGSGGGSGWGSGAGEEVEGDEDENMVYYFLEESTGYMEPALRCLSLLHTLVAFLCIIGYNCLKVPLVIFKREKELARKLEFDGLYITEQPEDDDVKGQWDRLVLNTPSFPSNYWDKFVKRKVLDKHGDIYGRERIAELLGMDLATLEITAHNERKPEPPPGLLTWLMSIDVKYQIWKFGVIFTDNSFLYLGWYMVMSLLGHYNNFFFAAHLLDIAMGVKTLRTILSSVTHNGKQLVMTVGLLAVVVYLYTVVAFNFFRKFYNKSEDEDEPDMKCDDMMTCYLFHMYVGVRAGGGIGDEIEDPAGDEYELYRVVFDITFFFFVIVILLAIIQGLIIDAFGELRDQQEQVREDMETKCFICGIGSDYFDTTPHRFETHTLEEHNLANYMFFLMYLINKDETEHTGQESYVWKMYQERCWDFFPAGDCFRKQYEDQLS

As to `O=c1c(O)c(-c2cc(O)c(O)c(O)c2)oc2cc(O)cc(O)c12` [myricetin], the “Maximum decrease in [3H]ryanodine binding” value at RyR1 [1] (1 μM compound, 30 μM Ca2+) is recorded as ~ 20%. The “Effect on [3H]ryanodine binding” value on RyR1 [1] (20 μM compound, 30 nM Ca2+, only in the absence of CaM) is “dramatically increased”; at RyR1 [1] (30 μM Ca2+, presence and absence of 0.3 μM CaM, 0-20 μM compound) it was “biphasic effect”; on RyR2 [5] it was “only inhibits”. Besides, the “Decrease in [3H]ryanodine binding” value at RyR1 [1] (≤ 10 μM compound, 30 nM Ca2+, with or without CaM) is greater than 50%. In addition, the “Decrease of F-FKBP binding” value at RyR2 [2] and on RyR1 [4] was “did not alter” in each case. The “Effect on steady-state [Ca2+]t-sys vs control (RyR1 leak)” value in experiment [3] (1 μM compound, 200 nM [Ca2+]cyto) is “decreased”; in experiment [3] (setting [8]), “decreased”. The “Effect on [Ca2+]t-sys relative to RyR blocker tetracaine” value in experiment [3] (setting [8]) is listed as “went beyond the effects of 1 mM tetracaine”. In experiment [3], the “Reduction of RyR1 Ca2+ leak” value was greater than 50%.

Turning to `Oc1c(Cl)cc(Cl)c2cccnc12` [chloroxine], at RyR1 [6], the “Decrease in [3H]ryanodine binding” value is listed as 20%. The “Effect on readout of ER Ca2+ phenotypic screen” value with MH-linked RyR1 mutant is on record as “increased RyR1 activity”. Also, the “Effect on steady-state [Ca2+]t-sys vs control (RyR1 leak)” value in experiment [3] (100 μM compound, 200 nM [Ca2+]cyto) is “statistically decreased”. For the same compound, the “Effect on steady-state [Ca2+]t-sys (RyR1 leak)” value in experiment [3] (all three concentrations tested (1, 10 and 100 μM), towards level of 1 mM tetracaine) is “progressively reduced”. For the same compound, the “Reduction of RyR1 Ca2+ leak” value in experiment [3] is listed as greater than 50%. For the same compound, at RyR1 [7], the “Effect on FRET in previous 384-well screen” value is “increased FRET”.
